Measurements reported in article PMC8080530, “Glucocorticoid receptor Thr524 phosphorylation by MINK1 induces interactions with 14-3-3 protein regulators” (The Journal of Biological Chemistry, 2021).
Read-outs that look alike come from different tables or passages of the source. Non-standard residues stand in square brackets, D forms with d. Residues, ends and D or L forms follow the SMILES beside them. *: point of attachment. 6FAM = O=C1OC2(c3ccc(O)cc3Oc3cc(O)ccc32)c2cc(C(=O)*)ccc21; pT = C[C@@H](OP(=O)(O)O)[C@H](N)C(=O)O; pS = N[C@@H](COP(=O)(O)O)C(=O)O

Target: T1, 14-3-3ζ (Homo sapiens, UniProt P63104)
T1 construct: Full-length expression and purification of 14-3-3; made in house; host or cells: E. coli BL21 (DE3)STAR
T1 sequence (P63104 1-245): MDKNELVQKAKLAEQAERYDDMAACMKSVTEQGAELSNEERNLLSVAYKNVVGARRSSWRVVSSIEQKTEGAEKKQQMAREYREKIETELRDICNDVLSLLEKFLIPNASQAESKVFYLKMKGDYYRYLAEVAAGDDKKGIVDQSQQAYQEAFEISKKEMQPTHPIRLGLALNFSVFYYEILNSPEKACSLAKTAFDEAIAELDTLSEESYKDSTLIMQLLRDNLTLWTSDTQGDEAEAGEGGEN
Assay: FP assay with GR phosphorylated peptides and 14-3-3ζ
Format: binding
Procedure: After 30-min incubation at RT, the plates were read on a plate reader PHERAstar (BMG LABTECH GmbH) for FP signal using […] and standard excitation (485 nm) and emission (520 nm). Measurements were performed as triplicates. Binding data were fit to a standard Hill equation using the software Genedata Screener. The figures were made using the software GraphPad Prism 8. FP data were expressed as millipolarization (mP) units, and the dynamic range (ΔmP) was the difference of the signals from the bound peptide and free peptide. Errors are the standard error of the fit.

[1] = read-out: PKd with 14-3-3ζ (converted)
[2] = FITC-labeled peptide 60 nM (monophosphorylated) or 10 nM (doubly phosphorylated) titrated with 14-3-3ζ, 30 min RT, Hill fit, triplicates, read-out: Kd with 14-3-3ζ by FP

Structure (SMILES) | Kd [1] | Kd [2] | fold decrease in binding affinity with 14-3-3ζ relative to GR_pT524-pS617 (ratio of Kd values)
CC[C@H](C)[C@H](NC(=O)[C@H](C)NC(=O)[C@@H](N)CCCCN)C(=O)N[C@H](C(=O)N1CCC[C@H]1C(=O)N[C@@H](C)C(=O)N[C@H](C(=O)N[C@@H](CC(C)C)C(=O)N1CCC[C@H]1C(=O)N[C@@H](CCC(N)=O)C(=O)N[C@@H](CC(C)C)C(=O)N[C@H](C(=O)N1CCC[C@H]1C(=O)NCC(=O)NCC(=O)NCC(=O)NCC(=O)NCC(=O)N[C@@H](CCCNC(=N)N)C(=O)N[C@@H](CO)C(=O)N[C@@H](Cc1ccc(O)cc1)C(=O)N[C@@H](CCCNC(=N)N)C(=O)N[C@@H](CCC(N)=O)C(=O)N[C@@H](CO)C(=O)N[C@@H](COP(=O)(O)O)C(=O)N[C@@H](C)C(=O)N[C@@H](CC(N)=O)C(=O)N[C@@H](CC(C)C)C(=O)N[C@@H](CC(C)C)C(=O)N[C@@H](CS)C(=O)N[C@@H](Cc1ccccc1)C(=O)O)[C@@H](C)O)[C@@H](C)OP(=O)(O)O)C(C)C [GR_T519A] (H-KAIVPA[pT]LPQLTPGGGGGRSYRQS[pS]ANLLCF-OH) | 63.1 nM |  | 
CC[C@H](C)[C@H](NC(=O)[C@@H](NC(=O)[C@@H](N)CCCCN)[C@@H](C)O)C(=O)N[C@H](C(=O)N1CCC[C@H]1C(=O)N[C@@H](C)C(=O)N[C@@H](C)C(=O)N[C@@H](CC(C)C)C(=O)N1CCC[C@H]1C(=O)N[C@@H](CCC(N)=O)C(=O)N[C@@H](CC(C)C)C(=O)N[C@H](C(=O)N1CCC[C@H]1C(=O)NCC(=O)NCC(=O)NCC(=O)NCC(=O)NCC(=O)N[C@@H](CCCNC(=N)N)C(=O)N[C@@H](CO)C(=O)N[C@@H](Cc1ccc(O)cc1)C(=O)N[C@@H](CCCNC(=N)N)C(=O)N[C@@H](CCC(N)=O)C(=O)N[C@@H](CO)C(=O)N[C@@H](COP(=O)(O)O)C(=O)N[C@@H](C)C(=O)N[C@@H](CC(N)=O)C(=O)N[C@@H](CC(C)C)C(=O)N[C@@H](CC(C)C)C(=O)N[C@@H](CS)C(=O)N[C@@H](Cc1ccccc1)C(=O)O)[C@@H](C)O)C(C)C [GR_T524A-pS617] (H-KTIVPAALPQLTPGGGGGRSYRQS[pS]ANLLCF-OH) | 126000 nM |  | 
CC[C@H](C)[C@H](NC(=O)[C@@H](NC(=O)[C@@H](N)CCCCN)[C@@H](C)O)C(=O)N[C@H](C(=O)N1CCC[C@H]1C(=O)N[C@@H](C)C(=O)N[C@H](C(=O)N[C@@H](CC(C)C)C(=O)N1CCC[C@H]1C(=O)N[C@@H](CCC(N)=O)C(=O)N[C@@H](CC(C)C)C(=O)N[C@@H](C)C(=O)N1CCC[C@H]1C(=O)NCC(=O)NCC(=O)NCC(=O)NCC(=O)NCC(=O)N[C@@H](CCCNC(=N)N)C(=O)N[C@@H](CO)C(=O)N[C@@H](Cc1ccc(O)cc1)C(=O)N[C@@H](CCCNC(=N)N)C(=O)N[C@@H](CCC(N)=O)C(=O)N[C@@H](CO)C(=O)N[C@@H](COP(=O)(O)O)C(=O)N[C@@H](C)C(=O)N[C@@H](CC(N)=O)C(=O)N[C@@H](CC(C)C)C(=O)N[C@@H](CC(C)C)C(=O)N[C@@H](CS)C(=O)N[C@@H](Cc1ccccc1)C(=O)O)[C@@H](C)OP(=O)(O)O)C(C)C [GR_T529A] (H-KTIVPA[pT]LPQLAPGGGGGRSYRQS[pS]ANLLCF-OH) | 50.1 nM |  | 
CC[C@H](C)[C@H](NC(=O)[C@@H](NC(=O)[C@@H](N)CCCCN)[C@@H](C)O)C(=O)N[C@@H](C)C(=O)N1CCC[C@H]1C(=O)N[C@@H](C)C(=O)N[C@H](C(=O)N[C@@H](CC(C)C)C(=O)N1CCC[C@H]1C(=O)N[C@@H](CCC(N)=O)C(=O)N[C@@H](CC(C)C)C(=O)N[C@H](C(=O)N1CCC[C@H]1C(=O)NCC(=O)NCC(=O)NCC(=O)NCC(=O)NCC(=O)N[C@@H](CCCNC(=N)N)C(=O)N[C@@H](CO)C(=O)N[C@@H](Cc1ccc(O)cc1)C(=O)N[C@@H](CCCNC(=N)N)C(=O)N[C@@H](CCC(N)=O)C(=O)N[C@@H](CO)C(=O)N[C@@H](COP(=O)(O)O)C(=O)N[C@@H](C)C(=O)N[C@@H](CC(N)=O)C(=O)N[C@@H](CC(C)C)C(=O)N[C@@H](CC(C)C)C(=O)N[C@@H](CS)C(=O)N[C@@H](Cc1ccccc1)C(=O)O)[C@@H](C)O)[C@@H](C)OP(=O)(O)O [GR_V521A] (H-KTIAPA[pT]LPQLTPGGGGGRSYRQS[pS]ANLLCF-OH) | 39.8 nM |  | 
CC[C@H](C)[C@H](NC(=O)[C@@H](NC(=O)[C@@H](N)CCCCN)[C@@H](C)O)C(=O)N[C@H](C(=O)N1CCC[C@H]1C(=O)N[C@@H](C)C(=O)N[C@H](C(=O)N[C@@H](CC(C)C)C(=O)N1CCC[C@H]1C(=O)N[C@@H](CCC(N)=O)C(=O)N[C@@H](CC(C)C)C(=O)N[C@H](C(=O)N1CCC[C@H]1C(=O)NCC(=O)NCC(=O)NCC(=O)NCC(=O)NCC(=O)N[C@@H](CCCNC(=N)N)C(=O)N[C@@H](CO)C(=O)N[C@@H](C)C(=O)N[C@@H](CCCNC(=N)N)C(=O)N[C@@H](CCC(N)=O)C(=O)N[C@@H](CO)C(=O)N[C@@H](COP(=O)(O)O)C(=O)N[C@@H](C)C(=O)N[C@@H](CC(N)=O)C(=O)N[C@@H](CC(C)C)C(=O)N[C@@H](CC(C)C)C(=O)N[C@@H](CS)C(=O)N[C@@H](Cc1ccccc1)C(=O)O)[C@@H](C)O)[C@@H](C)OP(=O)(O)O)C(C)C [GR_Y613A] (H-KTIVPA[pT]LPQLTPGGGGGRSARQS[pS]ANLLCF-OH) | 79.4 nM |  | 
CC(C)C[C@H](NC(=O)[C@H](CO)NC(=O)[C@@H]1CCCN1C(=O)[C@H](COP(=O)(O)O)NC(=O)[C@H](CO)NC(=O)[C@H](C)NC(=O)[C@H](CO)NC(=O)[C@@H](NC(=O)[C@H](CCCCN)NC(=O)[C@@H](N)C(C)C)C(C)C)C(=O)N[C@@H](C)C(=O)N[C@H](C(=O)N[C@@H](C)C(=O)O)C(C)C [GR_pS45] (H-VKVSAS[pS]PSLAVA-OH; N-terminus assumed) |  | > 150000 nM | 
CSCC[C@H](NC(=O)[C@H](CO)NC(=O)[C@H](CC(C)C)NC(=O)[C@H](COP(=O)(O)O)NC(=O)[C@@H](NC(=O)[C@H](C)NC(=O)[C@H](CCCCN)NC(=O)[C@H](CO)NC(=O)[C@H](CC(C)C)NC(=O)[C@H](CC(=O)O)NC(=O)c1ccc2c(c1)C1(OC2=O)c2ccc(O)cc2Oc2cc(O)ccc21)C(C)C)C(=O)NCC(=O)N[C@@H](CC(C)C)C(=O)N[C@@H](Cc1ccc(O)cc1)C(=O)NCC(=O)NCC(=O)NCC(=O)NCC(=O)NCC(=O)N[C@@H](CC(N)=O)C(=O)N[C@@H](CC(C)C)C(=O)N[C@@H](CC(N)=O)C(=O)N[C@@H](CCCNC(=N)N)C(=O)N[C@@H](CO)C(=O)N[C@H](C(=O)N[C@@H](COP(=O)(O)O)C(=O)N[C@H](C(=O)N1CCC[C@H]1C(=O)N[C@@H](CCC(=O)O)C(=O)N[C@@H](CC(N)=O)C(=O)N1CCC[C@H]1C(=O)N[C@@H](CCCCN)C(=O)O)C(C)C)[C@@H](C)O [GR_pS83-pS134] (6FAM-DLSKAV[pS]LSMGLYGGGGGNLNRST[pS]VPENPK-OH; C-terminus assumed) |  | 22000 ± 8000 nM | at least 15 fold
CC[C@H](C)[C@H](NC(=O)[C@H](CCC(N)=O)NC(=O)CNC(=O)[C@@H](N)CCC(N)=O)C(=O)N[C@@H](CO)C(=O)N[C@@H](CC(C)C)C(=O)N[C@@H](COP(=O)(O)O)C(=O)N[C@@H](CO)C(=O)NCC(=O)N[C@@H](CCC(=O)O)C(=O)N[C@H](C(=O)N[C@@H](CC(=O)O)C(=O)N[C@@H](CC(C)C)C(=O)O)[C@@H](C)O [GR_pS113] (H-QGQISL[pS]SGETDL-OH; N-terminus and C-terminus assumed) |  | > 150000 nM | 
CC[C@H](C)[C@H](NC(=O)[C@@H](NC(=O)[C@H](CCCCN)NC(=O)CNC(=O)CNC(=O)CNC(=O)CNC(=O)CNC(=O)[C@H](CCCCN)NC(=O)[C@@H]1CCCN1C(=O)[C@H](CC(N)=O)NC(=O)[C@H](CCC(=O)O)NC(=O)[C@@H]1CCCN1C(=O)[C@@H](NC(=O)[C@H](COP(=O)(O)O)NC(=O)[C@@H](NC(=O)[C@H](CO)NC(=O)[C@H](CCCNC(=N)N)NC(=O)[C@H](CC(N)=O)NC(=O)[C@H](CC(C)C)NC(=O)[C@H](CC(N)=O)NC(=O)c1ccc2c(c1)C1(OC2=O)c2ccc(O)cc2Oc2cc(O)ccc21)[C@@H](C)O)C(C)C)[C@@H](C)O)C(=O)N[C@H](C(=O)N1CCC[C@H]1C(=O)N[C@@H](C)C(=O)N[C@H](C(=O)N[C@@H](CC(C)C)C(=O)N1CCC[C@H]1C(=O)N[C@@H](CCC(N)=O)C(=O)N[C@@H](CC(C)C)C(=O)N[C@H](C(=O)N1CCC[C@H]1C(=O)O)[C@@H](C)O)[C@@H](C)OP(=O)(O)O)C(C)C [GR_pS134-pT524] (6FAM-NLNRST[pS]VPENPKGGGGGKTIVPA[pT]LPQLTP-OH; C-terminus assumed) |  | 550 nM | 
CC(C)C[C@H](N)C(=O)N[C@@H](CCC(=O)O)C(=O)N[C@@H](Cc1ccccc1)C(=O)N[C@@H](CO)C(=O)N[C@@H](CO)C(=O)NCC(=O)N[C@@H](COP(=O)(O)O)C(=O)N1CCC[C@H]1C(=O)NCC(=O)N[C@@H](CCCCN)C(=O)N[C@@H](CCC(=O)O)C(=O)N[C@H](C(=O)N[C@@H](CC(N)=O)C(=O)O)[C@@H](C)O [GR_pS203] (H-LEFSSG[pS]PGKETN-OH; N-terminus assumed) |  | > 150000 nM | 
CC(C)C[C@H](NC(=O)[C@H](CC(=O)O)NC(=O)[C@H](CO)NC(=O)[C@H](CCCNC(=N)N)NC(=O)[C@H](Cc1c[nH]c2ccccc12)NC(=O)[C@@H]1CCCN1C(=O)[C@H](COP(=O)(O)O)NC(=O)[C@H](CCC(=O)O)NC(=O)[C@H](CC(N)=O)NC(=O)[C@@H](NC(=O)[C@H](CCC(=O)O)NC(=O)[C@H](CCCCN)NC(=O)CN)[C@@H](C)O)C(=O)O [GR_pS211] (H-GKETNE[pS]PWRSDL-OH; N-terminus assumed) |  | > 150000 nM | 
CC(C)C[C@H](NC(=O)[C@H](CS)NC(=O)[C@H](CC(N)=O)NC(=O)[C@H](CCC(=O)O)NC(=O)[C@@H](N)CC(=O)O)C(=O)N[C@@H](CC(C)C)C(=O)N[C@@H](COP(=O)(O)O)C(=O)N1CCC[C@H]1C(=O)N[C@@H](CC(C)C)C(=O)N[C@@H](C)C(=O)NCC(=O)N[C@@H](CCC(=O)O)C(=O)N[C@@H](CC(=O)O)C(=O)O [GR_pS226] (H-DENCLL[pS]PLAGED-OH; N-terminus assumed) |  | > 150000 nM | 
